# Molecular target: recombinant human mGluR2 (Homo sapiens (Human), UniProt Q14416)
# Assay: FLIPR Ca2+ mobilization antagonist assay in CHO dhfr- cells expressing human mGluR2 and Gα16
# Type: cell-based
# Details: antagonist response after addition of 2,500 nM glutamate, Fluo-4 AM, FLIPR384
# Method: Antagonist constants are determined as follows. The compounds of the invention were tested in a fluorescence laser imaging plate reader based assay. This assay is a common functional assay to monitor Ca2+ mobilization in whole cells expressing recombinant receptor coupled with a promiscuous G-protein. CHO dhfr-cells stably expressing recombinant human mGluR2 and Gα16 loaded with Fluo-4 AM (Invitrogen, Carlsbad Calif.) were treated with various concentrations of antagonists of compounds and the Ca2+ response was monitored on a FLIPR384 (Molecular Devices, Sunnydale Calif.) for agonist activity. Then 2,500 nM glutamate was added and the antagonist response was monitored. The maximum calcium response at each concentration of compound for agonist or antagonist were plotted as dose responses and the curves were fitted with a four parameter logistic equation giving IC50 and Hill coefficient using the iterative non linear curve fitting software ADA (Merck & Co). Data in the following table represent activities in the antagonist assay.
# Sequence of recombinant human mGluR2 (Q14416 19-872): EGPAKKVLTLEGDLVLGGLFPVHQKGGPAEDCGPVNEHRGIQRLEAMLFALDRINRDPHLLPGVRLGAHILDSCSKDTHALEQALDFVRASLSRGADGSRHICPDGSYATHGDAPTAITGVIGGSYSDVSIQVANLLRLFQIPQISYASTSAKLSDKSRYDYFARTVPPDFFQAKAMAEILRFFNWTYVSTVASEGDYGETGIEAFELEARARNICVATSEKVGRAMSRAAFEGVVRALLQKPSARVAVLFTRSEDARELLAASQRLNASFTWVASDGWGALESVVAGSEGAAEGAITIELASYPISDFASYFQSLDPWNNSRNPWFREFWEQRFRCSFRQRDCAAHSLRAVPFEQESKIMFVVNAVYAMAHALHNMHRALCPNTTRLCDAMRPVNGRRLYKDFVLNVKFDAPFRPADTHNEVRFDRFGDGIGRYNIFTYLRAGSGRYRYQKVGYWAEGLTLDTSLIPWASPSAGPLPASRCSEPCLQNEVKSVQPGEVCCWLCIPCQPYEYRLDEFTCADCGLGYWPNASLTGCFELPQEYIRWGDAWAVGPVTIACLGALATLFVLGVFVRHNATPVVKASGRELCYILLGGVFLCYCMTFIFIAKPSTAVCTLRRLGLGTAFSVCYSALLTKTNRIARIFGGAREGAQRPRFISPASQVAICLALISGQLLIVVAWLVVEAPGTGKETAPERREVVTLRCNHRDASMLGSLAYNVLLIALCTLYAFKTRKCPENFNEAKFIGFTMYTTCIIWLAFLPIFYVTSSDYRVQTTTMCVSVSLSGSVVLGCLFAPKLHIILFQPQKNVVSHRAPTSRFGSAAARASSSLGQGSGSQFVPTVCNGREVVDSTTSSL
row,Structure (SMILES),IC50
1,"COc1cc(C(N2CCc3c(C4=CCC(C)CC4)cc(C(N)=O)nc3C2)C(F)(F)F)ccn1 (racemic) [Example 4-3A, 4-((S) and (R)-4-methylcyclohex-1-en-1-yl)-7-((S) and (R)-2,2,2-trifluoro-1-(2-methoxypyridin-4-yl)ethyl)-5,6,7,8-tetrahydro-1,7-naphthyridine-2-carboxamide]",51.2 nM
2,"Cc1nonc1CN1CCc2c(-c3ccc(F)cc3F)cc(C(N)=O)nc2C1 [Example 2-7, 4-(2,4-difluorophenyl)-7-[(4-methyl-1,2,5-oxadiazol-3-yl)methyl]-5,6,7,8-tetrahydro-1,7-naphthyridine-2-carboxamide]",7.6 nM
3,"NC(=O)c1cc(N2CCCC(F)C2)c2c(n1)CN(Cc1ccnc(C(F)(F)F)c1)CC2 (single isomer, unassigned) [Example 5-6B, (R) or (S)-4-(3-fluoropiperidin-1-yl)-7-((2-(trifluoromethyl)pyridin-4-yl)methyl)-5,6,7,8-tetrahydro-1,7-naphthyridine-2-carboxamide]",17.3 nM
4,"NC(=O)c1cc(-c2ccc(F)cc2F)c2c(n1)CN(CC(O)c1ccccc1)CC2 (racemic) [Example 8-1B, (S) and (R)-4-(2,4-difluorophenyl)-7-(2-hydroxy-2-phenylethyl)-5,6,7,8-tetrahydro-1,7-naphthyridine-2-carboxamide]",12.7 nM
5,"CC1(C)CC(CN2CCc3c(-c4ccc(F)cc4F)cc(C(N)=O)nc3C2(C)C)CCO1 (racemic) [Example 1-23B, (R) and (S)-4-(2,4-difluorophenyl)-7-((2,2-dimethyltetrahydro-2H-pyran-4-yl)methyl)-8,8-dimethyl-5,6,7,8-tetrahydro-1,7-naphthyridine-2-carboxamide]",28.5 nM
6,"CC1(C)CCC(CN2CCc3c(-c4ccc(Cl)cc4F)cc(C(N)=O)nc3C2)CO1 (single isomer, unassigned) [Example 1-21, (S) or (R)-4-(4-chloro-2-fluorophenyl)-7-[(6,6-dimethyltetrahydro-2H-pyran-3-yl)methyl]-5,6,7,8-tetrahydro-1,7-naphthyridine-2-carboxamide]",9.3 nM
7,"CC1(C)CC(F)(CN2CCc3c(-c4ccc(F)cc4F)cc(C(N)=O)nc3C2)CO1 (single isomer, unassigned) [Example 14-1B]",17.8 nM
8,"N#Cc1cnn(-c2cc(C(N)=O)nc3c2CCN(Cc2ccnc(C(F)(F)F)c2)C3)c1 [Example 2-25, 4-(4-cyano-1H-pyrazol-1-yl)-7-{[2-(trifluoromethyl)pyridin-4-yl]methyl}-5,6,7,8-tetrahydro-1,7-naphthyridine-2-carboxamide]",40.9 nM
9,"NC(=O)c1cc(-c2ccc(F)cc2F)c2c(n1)CN(CC(=O)N1CCOCC1)CC2 [Example 2-17, 4-(2,4-difluorophenyl)-7-(2-morpholin-4-yl-2-oxoethyl)-5,6,7,8-tetrahydro-1,7-naphthyridine-2-carboxamide]",101 nM
10,"CC1(C)CC(CN2CCc3c(-c4ccc(Cl)cc4F)cc(C(N)=O)nc3C2)CCO1 (single isomer, unassigned) [Example 1-5B, (S) or (R)-4-(4-chloro-2-fluorophenyl)-7-((2,2-dimethyltetrahydro-2H-pyran-4-yl)methyl)-5,6,7,8-tetrahydro-1,7-naphthyridine-2-carboxamide]",7.5 nM
11,"CC1(C)CC(F)(CN2CCc3c(-c4ccc(F)cc4F)cc(C(N)=O)nc3C2)CO1 (single isomer, unassigned) [Example 14-1A]",17.4 nM
12,"NC(=O)c1cc(-c2ccc(F)cc2F)c2c(n1)CN(CC(O)c1ccccc1)CC2 (single isomer, unassigned) [Example 8-3B, (R) or (S)-4-(2,4-difluorophenyl)-7-[(2R or 2S)-2-hydroxy-2-phenylethyl]-5,6,7,8-tetrahydro-1,7-naphthyridine-2-carboxamide]",12.7 nM
13,"COc1cc(C(N2CCc3c(C4=CCC(C)CC4)cc(C(N)=O)nc3C2)C(F)(F)F)ccn1 (racemic) [Example 4-3B, 4-((S) and (R)-4-methylcyclohex-1-en-1-yl)-7-((S) and (R)-2,2,2-trifluoro-1-(2-methoxypyridin-4-yl)ethyl)-5,6,7,8-tetrahydro-1,7-naphthyridine-2-carboxamide]",86.6 nM
14,"COc1cc(F)ccc1-c1cc(C(N)=O)nc2c1CCN(Cc1ccnc(C3CC3)c1)C2 [Example 2-10, 7-[(2-cyclopropylpyridin-4-yl)methyl]-4-(4-fluoro-2-methoxyphenyl)-5,6,7,8-tetrahydro-1,7-naphthyridine-2-carboxamide]",40.9 nM
15,"NC(=O)c1cc(-c2cc(C3CC3)ns2)c2c(n1)CN(Cc1ccnc(C3CC3)c1)CC2 [Example 2-24, 4-(3-cyclopropylisothiazol-5-yl)-7-[(2-cyclopropylpyridin-4-yl)methyl]-5,6,7,8-tetrahydro-1,7-naphthyridine-2-carboxamide]",18.2 nM

# Continued, values first:
row,IC50,Structure (SMILES)
1,115 nM,"Cc1cn(-c2cc(C(N)=O)nc3c2CCN(Cc2ccnc(C(F)(F)F)c2)C3)cn1 [Example 5-1, 4-(4-methyl-1H-imidazol-1-yl)-7-((2-(trifluoromethyl)pyridin-4-yl)methyl)-5,6,7,8-tetrahydro-1,7-naphthyridine-2-carboxamide]"
2,45.9 nM,"CC(c1cnnn1C)N1CCc2c(-c3ccc(F)cc3F)cc(C(N)=O)nc2C1 (single isomer, unassigned) [Example 7-2, (R) or (S)-4-(2,4-difluorophenyl)-7-[(1R)-1-(1-methyl-1H-1,2,3-triazol-5-yl)ethyl]-5,6,7,8-tetrahydro-1,7-naphthyridine-2-carboxamide]"
3,27.7 nM,"NC(=O)c1cc(-c2ccc(Cl)cc2F)c2c(n1)CN(Cc1ncon1)CC2 [Example 9-1, 7-((1,2,4-oxadiazol-3-yl)methyl)-4-(4-chloro-2-fluorophenyl)-5,6,7,8-tetrahydro-1,7-naphthyridine-2-carboxamide]"
4,25.8 nM,"NC(=O)c1cc(-c2c(F)cccc2F)c2c(n1)CN(Cc1ccnc(C(F)(F)F)n1)CC2 [Example 11-1, 4-(2,6-Difluorophenyl)-7-((2-(trifluoromethyl)pyrimidin-4-yl)methyl)-5,6,7,8-tetrahydro-1,7-naphthyridine-2-carboxamide]"
5,35.9 nM,"NC(=O)c1cc(N2CCC(F)(F)CC2)c2c(n1)CN(Cc1cc(C(F)(F)F)ncn1)CC2 [Example 12-4, 4-(4,4-difluoropiperidin-1-yl)-7-{[6-(trifluoromethyl)pyrimidin-4-yl]methyl}-5,6,7,8-tetrahydro-1,7-naphthyridine-2-carboxamide]"
6,29 nM,"NC(=O)c1cc(N2CCCC3(CC3)C2)c2c(n1)CN(Cc1ccnc(C(F)(F)F)c1)CC2 [Example 5-4, 4-(5-azaspiro[2.5]oct-5-yl)-7-{[2-(trifluoromethyl)pyridin-4-yl]methyl}-5,6,7,8-tetrahydro-1,7-naphthyridine-2-carboxamide]"
7,93.2 nM,"NC(=O)c1cc(-n2cc(Cl)cn2)c2c(n1)CN(Cc1ccnc(C(F)(F)F)n1)CC2 [Example 12-3, 4-(4-chloro-1H-pyrazol-1-yl)-7-{[2-(trifluoromethyl)pyrimidin-4-yl]methyl}-5,6,7,8-tetrahydro-1,7-naphthyridine-2-carboxamide]"
8,18.6 nM,"Cc1ncc(-c2cc(C(N)=O)nc3c2CCN(Cc2ccnc(OC(F)F)c2)C3)s1 [Example 6-3, 7-{[2-(difluoromethoxy)pyridin-4-yl]methyl}-4-(2-methyl-1,3-thiazol-5-yl)-5,6,7,8-tetrahydro-1,7-naphthyridine-2-carboxamide]"
